Consider 17 compounds from PubChem BioAssay AID328 (DTP/NCI, 2004).

Values joined by “and” are separate entries in the source; they are usually repeats but may differ in a detail not shown here. Equal entries are not always repeated. Inconclusive results and toxic doses are left out.

The subject of this assay is BDF1 mice, P388 leukemia ip, median survival T/C. As to the kind of experiment: NCI In Vivo Anticancer Drug Screen. Data for tumor model P388 Leukemia (intraperitoneal) in B6D2F1 (BDF1) mice. Particulars: endpoint: median survival time, higher = longer survival. In short, it runs like this:
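Mice carrying the transplantable tumour receive compound or vehicle. Survival is followed in each arm, and the treated measure is divided by the vehicle measure.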

Setting [1] is: dose: 50.0 mg/kg/injection, schedule: Q04DX003 (ip), vehicle: saline with Tween-80.
[2] abbreviates: dose: 50.0 mg/kg/injection, schedule: Q04DX003 (ip), vehicle: saline.
Setting [3] is: dose: 100.0 mg/kg/injection, schedule: Q04DX003 (ip), vehicle: saline.
The mark [4] stands for this setting: dose: 12.5 mg/kg/injection, schedule: Q04DX003 (ip), vehicle: saline with Tween-80.
Setting [5] is: dose: 25.0 mg/kg/injection, schedule: Q04DX003 (ip), vehicle: saline with Tween-80.
Setting [6] is: dose: 100.0 mg/kg/injection, schedule: Q04DX003 (ip), vehicle: saline with Tween-80.
Setting [7] is: dose: 100.0 mg/kg/injection, schedule: Q04DX003 (ip), vehicle: Klucel (hydroxypropylcellulose) (HPC).
Where [8] appears, read: dose: 200.0 mg/kg/injection, schedule: Q04DX003 (ip), vehicle: Klucel (hydroxypropylcellulose) (HPC).
[9] abbreviates: dose: 400.0 mg/kg/injection, schedule: Q04DX003 (ip), vehicle: Klucel (hydroxypropylcellulose) (HPC).
The mark [10] stands for this setting: dose: 100.0 mg/kg/injection, schedule: Q01DX009 (ip), vehicle: saline with Tween-80.
The mark [11] stands for this setting: dose: 100.0 mg/kg/injection, schedule: Q01DX009 (ip), vehicle: saline.
[12] abbreviates: dose: 200.0 mg/kg/injection, schedule: Q01DX009 (ip), vehicle: saline with Tween-80.
Where [13] appears, read: dose: 200.0 mg/kg/injection, schedule: Q01DX009 (ip), vehicle: saline.
[14] abbreviates: dose: 200.0 mg/kg/injection, schedule: Q04DX003 (ip), vehicle: saline with Tween-80.
The mark [15] stands for this setting: dose: 400.0 mg/kg/injection, schedule: Q04DX003 (ip), vehicle: saline with Tween-80.
Setting [16] is: dose: 50.0 mg/kg/injection, schedule: Q01DX009 (ip), vehicle: saline with Tween-80.

Turning to `COc1cc(NS(C)(=O)=O)ccc1Nc1c2ccc([N+](=O)[O-])cc2nc2c(C)c(C)ccc12`, the T/C (dose: 0.29 mg/kg/injection, schedule: Q04DX003 (ip), vehicle: saline with Tween-80) was 112 % of control; the T/C (dose: 0.44 mg/kg/injection, schedule: Q04DX003 (ip), vehicle: saline with Tween-80) is 154 % of control; the T/C (dose: 0.88 mg/kg/injection, schedule: Q01DX009 (ip), vehicle: saline with Tween-80) was 185 % of control; the T/C (dose: 1.0 mg/kg/injection, schedule: Q04DX003 (ip), vehicle: saline with Tween-80) is 154 % of control; the T/C (dose: 1.33 mg/kg/injection, schedule: Q01DX009 (ip), vehicle: saline with Tween-80) is 203 % of control; the T/C (dose: 2.0 mg/kg/injection, schedule: Q01DX009 (ip), vehicle: saline with Tween-80) is 254 % of control. Further, the T/C is 269 % of control (dose: 2.66 mg/kg/injection, schedule: Q01DX009 (ip), vehicle: saline with Tween-80); 273 % of control (dose: 3.0 mg/kg/injection, schedule: Q01DX009 (ip), vehicle: saline with Tween-80); 272 % of control (dose: 4.0 mg/kg/injection, schedule: Q01DX009 (ip), vehicle: saline with Tween-80); 211 % of control (dose: 6.0 mg/kg/injection, schedule: Q01DX009 (ip), vehicle: saline with Tween-80); 295 % of control (dose: 9.0 mg/kg/injection, schedule: Q01DX009 (ip), vehicle: saline with Tween-80); 236 % of control and 281 % of control (dose: 22.0 mg/kg/injection, schedule: Q04DX003 (ip), vehicle: saline with Tween-80). The T/C runs as follows: (dose: 25.0 mg/kg/injection, schedule: Q04DX003 (ip), vehicle: saline) 260 % of control; (dose: 33.0 mg/kg/injection, schedule: Q04DX003 (ip), vehicle: saline with Tween-80) 272 % of control and 281 % of control; under setting [1], 272 % of control and 281 % of control; under setting [2], 230 % of control; (dose: 75.0 mg/kg/injection, schedule: Q04DX003 (ip), vehicle: saline with Tween-80) 272 % of control and 122 % of control; under setting [3], 95 % of control.

Regarding `O=[N+]([O-])/C=C/c1cccc(F)c1`, the T/C under setting [4] was 107 % of control, the T/C under setting [5] was 98 % of control, the T/C under setting [1] is 93 % of control and the T/C under setting [6] was 87 % of control.

In the case of `Cc1cc(N(c2c(Cl)c(Cl)c(NS(=O)(=O)c3ccccc3)c(Cl)c2Cl)S(=O)(=O)c2ccccc2)cc(C)c1N`, the T/C is, setting by setting: under setting [7], 96 % of control; (dose: 200.0 mg/kg/injection, schedule: Q01DX009 (ip), vehicle: Klucel (hydroxypropylcellulose) (HPC)) 92 % of control; under setting [8], 96 % of control; (dose: 400.0 mg/kg/injection, schedule: Q01DX009 (ip), vehicle: Klucel (hydroxypropylcellulose) (HPC)) 96 % of control; under setting [9], 88 % of control.

Regarding `OC(CI)C(O)C(O)C(O)CI` (centres undefined), the T/C runs as follows: under setting [10], 108 % of control; under setting [11], 102 % of control; under setting [12], 102 % of control; under setting [13], 109 % of control; (dose: 300.0 mg/kg/injection, schedule: Q01DX009 (ip), vehicle: saline with Tween-80) 150 % of control; (dose: 400.0 mg/kg/injection, schedule: Q01DX009 (ip), vehicle: saline with Tween-80) 122 % of control. The T/C (dose: 400.0 mg/kg/injection, schedule: Q01DX009 (ip), vehicle: saline) is 109 % of control and the T/C (dose: 600.0 mg/kg/injection, schedule: Q01DX009 (ip), vehicle: saline) was 118 % of control.

As for `Nc1nc(N)c2cc(CNc3ccc(C(=O)NC(CC(=O)O)C(=O)O)cc3)ccc2n1` (centres undefined), the T/C is, setting by setting: (dose: 0.11 mg/kg/injection, schedule: Q01DX009 (ip), vehicle: saline) 112 % of control; (dose: 0.38 mg/kg/injection, schedule: Q01DX009 (ip), vehicle: saline) 154 % of control; (dose: 0.5 mg/kg/injection, schedule: Q01DX009 (ip), vehicle: saline) 183 % of control; (dose: 1.0 mg/kg/injection, schedule: Q04DX003 (ip), vehicle: saline sonified) 213 % of control; (dose: 2.0 mg/kg/injection, schedule: Q04DX003 (ip), vehicle: saline sonified) 204 % of control; (dose: 5.5 mg/kg/injection, schedule: Q04DX003 (ip), vehicle: saline sonified) 161 % of control. Also, the T/C is, setting by setting: (dose: 6.25 mg/kg/injection, schedule: Q01DX009 (ip), vehicle: saline) 95 % of control; (dose: 8.25 mg/kg/injection, schedule: Q04DX003 (ip), vehicle: saline sonified) 177 % of control; (dose: 25.0 mg/kg/injection, schedule: Q04DX003 (ip), vehicle: saline sonified) 96 % of control.

Take `Cc1ncc([N+](=O)[O-])n1CCN/C=C/C#N`: the T/C runs as follows: under setting [6], 111 % of control; under setting [14], 123 % of control; under setting [15], 120 % of control.

With `CCCCCC/C=C/C#CCCCCCCCC(=O)O`, the T/C is, setting by setting: (dose: 37.5 mg/kg/injection, schedule: Q01DX009 (ip), vehicle: Klucel (hydroxypropylcellulose) (HPC)) 106 % of control; (dose: 75.0 mg/kg/injection, schedule: Q01DX009 (ip), vehicle: Klucel (hydroxypropylcellulose) (HPC)) 100 % of control; (dose: 150.0 mg/kg/injection, schedule: Q01DX009 (ip), vehicle: Klucel (hydroxypropylcellulose) (HPC)) 109 % of control.

In the case of `CCC(C(OC(=O)Nc1ccc(Cl)c(Cl)c1)c1ccc(Cl)cc1)C(O)(C(F)(F)F)C(F)(F)F` (centres undefined), the T/C was 100 % of control under setting [7], 95 % of control under setting [8] and 91 % of control under setting [9].

As to `Cn1nnc2nnc(-c3ccccc3)n21`, the T/C was 100 % of control under setting [10]; 100 % of control under setting [6]; 103 % of control under setting [12]; 100 % of control under setting [14]; 95 % of control under setting [15].

For the compound `CN1CCC(OC(=O)c2ccc3c(c2)OCO3)CC1`, the T/C by setting is: under setting [4], 100 % of control; under setting [5], 117 % of control; under setting [1], 91 % of control.

Consider `CSc1nc2n(Cc3c[nH]c(=O)[nH]c3=O)cc(C)cc-2c(=O)n1`, for which the T/C is 101 % of control (dose: 6.25 mg/kg/injection, schedule: Q01DX009 (ip), vehicle: saline with Tween-80); 102 % of control (dose: 12.5 mg/kg/injection, schedule: Q01DX009 (ip), vehicle: saline with Tween-80); 95 % of control (dose: 25.0 mg/kg/injection, schedule: Q01DX009 (ip), vehicle: saline with Tween-80); 93 % of control under setting [16]; 113 % of control (dose: 100.0 mg/kg/injection, schedule: Q01DX001 (ip), vehicle: saline with Tween-80); 106 % of control (dose: 200.0 mg/kg/injection, schedule: Q01DX001 (ip), vehicle: saline with Tween-80).

`CC(=O)CC(=O)Nc1ccc(N=Nc2ccccc2)cc1`: the T/C was 109 % of control under setting [6], 109 % of control under setting [14] and 119 % of control under setting [15].

Turning to `CCN1c2ccccc2CC(CCCN(C)C)(C(N)=O)c2ccccc21` (centres undefined), the T/C runs as follows: under setting [11], 97 % of control; under setting [13], 98 % of control.

Consider `COC(=O)CCC(=O)c1ccc(OC)c(OC)c1`, for which the T/C under setting [16] was 115 % of control, the T/C under setting [10] is 99 % of control and the T/C under setting [12] was 99 % of control.

On to `CC1(C)CC(=O)c2ccccc21`, for which the T/C (dose: 25.0 mg/kg/injection, schedule: Q01DX009 (ip), vehicle: saline) is 99 % of control; the T/C (dose: 50.0 mg/kg/injection, schedule: Q01DX009 (ip), vehicle: saline) was 115 % of control; the T/C under setting [2] is 102 % of control; the T/C under setting [11] was 95 % of control; the T/C under setting [3] is 100 % of control; the T/C (dose: 200.0 mg/kg/injection, schedule: Q04DX003 (ip), vehicle: saline) was 109 % of control.

As for `O=C1NC(=O)C(c2ccccc2)(c2ccc(Cl)cc2Cl)N1` (centres undefined), the T/C was 95 % of control under setting [10]; 100 % of control under setting [6]; 91 % of control under setting [12]; 90 % of control under setting [14]; 100 % of control under setting [15].

In the case of `CCOC(=O)c1c(OCCCc2ccc(F)cc2)cc2ccc3ccccc3c2c1OCCCc1ccc(F)cc1`, the T/C is 86 % of control under setting [6], 87 % of control under setting [14] and 103 % of control under setting [15].
